Measured values published in patent publication US4859668A, “Method of inhibiting the growth of melanin-pigmented cells” (North Carolina State University, priority 1988, dated 1989).
≈ marks a conversion by molar mass, not a printed value. Where two headings read alike, the source gives them in different places.

How the values were obtained:
RPMI-1641 [1] = assay: cells; conditions: Mesocricetus auratus, 48 h, read-out: Growth inhibition, Morph. Alone vs. control
Description: (§4) These cell cultures include low passage HFH (HFH-LP), a pigmented line derived from the B-16 mouse melanoma, and NP, an amelanotic clone of HFH-LP. High passage HFH (HFH-HP) was derived from HFH-LP after 30 passages in vitro. […] These cell cultures further include Cloudman S91 mouse melanoma, RPMI 1846 (a Syrian hamster melanoma), baby hamster kidney (BHK) and Chinese hamster ovary (CHO). These cells were maintained as monolayers in Corning plastic flasks in Minimum Essential Medium (Eagle) with Earle's salts supplemented with 10% fetal bovine serum, 100 units of penicillin, 100 mg of streptomycin and 5 mg of amphotericin B per ml in 5% CO2 humidified air at 37° C.
(§5) Single cell suspensions were prepared as described above. Twenty-four hours after seeding, the cells were exposed to either (a) culture medium alone, or (b) culture medium containing 0.5 mM theophylline.
(§6) The values given are the mean from 6 replicates.

HFH-LP [2] = assay: cells; conditions: Mus musculus, 48 h, read-out: Growth inhibition, Morph. Alone vs. control
Description: as §4, §5, §6

NP [3] = assay: cells; conditions: Mus musculus, 48 h, read-out: Growth inhibition, Morph. Alone vs. control
Description: as §4, §5, §6

HFH-LP [4] = assay: Effect of Cyclic Amines on Growth Rate of Pigmented Melanoma (Table I), HFH-LP; type: cell-based, mouse; conditions: for inhibition at 13800 µM: Mus musculus, read-out: Effect on Growth Rate (inhibition), HFH-LP
Description: (§7) These cell cultures include low passage HFH (HFH-LP), a pigmented line derived from the B-16 mouse melanoma, and NP, an amelanotic clone of HFH-LP. […] These cells were maintained as monolayers in Corning plastic flasks in Minimum Essential Medium (Eagle) with Earle's salts supplemented with 10% fetal bovine serum, 100 units of penicillin, 100 mg of streptomycin and 5 mg of amphotericin B per ml in 5% CO2 humidified air at 37° C.
(§8) Prior to dose-response studies, single cell suspensions were prepared in medium following trypsinization and inoculated into Falcon Multiwell plates (2 cm^2 wells) at 3.5×10^4 cells per 0.5 ml of medium. Cultures were maintained for 24 hours before exposure.
(§9) This stock solution was used to prepare test concentrations of the drug in culture medium. […] Cells were exposed to each of these concentrations by adding 0.5 ml of each of the solutions to triplicate test wells and incubating the cells under exposure at 37° C. for 1 hour. […] Cells were harvested after 48 hours and counted with a hemacytometer.

[5] = system: unpigmented cell lines NP, BHK and CHO
Description: (§1) The Figure illustrates the effect of morpholine on the growth rate of HFH-LP (*), NP (0), BHK (+) and CHO (#) 48 hours after treatment. Values represent the mean ± S.E. for 3 to 6 determinations.

BHK [6] = assay: cells; conditions: Mesocricetus auratus, 48 h, read-out: Growth inhibition, Morph. Alone vs. control
Description: as §4, §5, §6

L929 = assay: cells; conditions: Mus musculus, L929, 48 h, read-out: Growth inhibition, Morph. Alone vs. control
SH = assay: cells; conditions: read-out: Percent Cell Detachment
Description: (§2) HFH and SH heavily pigmented cells, S91 lightly pigmented cells, and BHK nonpigmented cells were exposed to 13.8 mM morpholine for time periods ranging from 1 hour to 56 hours. The procedure was otherwise the same as described in Example 1 above. Cell death is indicated by cell detachment.

BHK [7] = assay: cells; conditions: Mesocricetus auratus, read-out: Percent Cell Detachment
Description: as §2

S91 = assay: cells; conditions: Mus musculus, read-out: Percent Cell Detachment
Description: as §2

HFH = assay: cells; conditions: Homo sapiens, read-out: Percent Cell Detachment
Description: as §2

RPMI-1641 [8] = conditions: RPMI 1641, morpholine alone
Description: as §4, §5, §6

[9] = system: NP (amelanotic clone of HFH-LP); assay: cells; conditions: Mus musculus, 48 h, read-out: ID50 (growth)
Description: as §1

[10] = system: baby hamster kidney (BHK); assay: cells; conditions: Mesocricetus auratus, 48 h, read-out: ID50 (growth)
Description: as §1

[11] = system: Chinese hamster ovary (CHO); assay: cells; conditions: Cricetulus griseus, 48 h, read-out: ID50 (growth)
Description: as §1

[12] = system: HFH-LP (pigmented line derived from the B-16 mouse melanoma); assay: cells
Description: as §1

melanin-pigmented cells = assay: In vitro selective inhibition of melanin-pigmented cells, effective dosage/time regimens; type: cell-based
HFH-LP [13] = assay: Effect of Cyclic Amines on Survival of Pigmented Melanoma (Table II), HFH-LP; conditions: Mus musculus, 24 h, read-out: percentage dead, HFH-LP
Description: (§10) These cells were maintained as monolayers in Corning plastic flasks in Minimum Essential Medium (Eagle) with Earle's salts supplemented with 10% fetal bovine serum, 100 units of penicillin, 100 mg of streptomycin and 5 mg of amphotericin B per ml in 5% CO2 humidified air at 37° C.
as §8, §9

in vitro = conditions: mouse, l929 cells
Description: as §10, §8, §9

L929 fibroblast = assay: Effects of Various Cyclic Amines on Growth of Pigmented Melanoma Cells (Table III), L929; type: cell-based, mouse; conditions: Mus musculus, read-out: Percent Inhibition, L929 fibroblast
Description: (§3) Pigmented S91 melanoma and unpigmented L929 fibroblast cells were treated with various cyclic amines at a concentration of 13.8 mM as described in Example 1 above.

[14] = system: S91 (Cloudman S91 mouse melanoma); assay: Effect of Cyclic Amines on Survival of Pigmented Melanoma (Table II), S91; conditions: 24 h, read-out: percentage dead, S91
Description: as §10, §8, §9

NP [15] = assay: cells; conditions: Mus musculus, 1.5 h, read-out: Effect on Growth Rate (inhibition), NP
Description: as §7, §8, §9

S91 melanoma = assay: Effects of Various Cyclic Amines on Growth of Pigmented Melanoma Cells (Table III), S91; type: cell-based, mouse; conditions: Mus musculus, read-out: Percent Inhibition, S91 melanoma
Description: as §3

[16] = Effect of Cyclic Amines on Survival of Pigmented Melanoma (Table II), L929; conditions: mouse, l929 cells
Description: as §10, §8, §9

Description for HFH-HP: as §4, §5, §6

For C1COCCN1 [morpholine], the inhibition at 1200 µg/mL (RPMI-1641 [1]) was -6%, the inhibition at 1200 µg/mL (HFH-LP [2]) was 64% and the “greater toxicity of morpholine with theophylline pretreatment” value (HFH-HP; growth inhibition increasing from 25% to 54%) was “twofold”. The “growth inhibition with theophylline pretreatment” value (HFH-HP; morpholine with theophylline pretreatment) was 54%, the inhibition at 1200 µg/mL (NP [3]) was -9% and the inhibition at 13800 µM (HFH-LP [4]; 13.8 mM for 1.5 hr, mean ± S.E., 6 replicates) was 97 ± 19%. For the same molecule, the “difference between unpigmented cell lines” value ([5]; any of the dosages tested) was “did not differ significantly from one another”, the “inhibition of nonpigmented cell growth” value ([5]; higher dosages, 48 hours after treatment) was 20% and the “effect on nonpigmented cell growth” value ([5]; low dosages, 48 hours after treatment) was “not affected”. The inhibition at 1200 µg/mL (BHK [6]) was 0%, the inhibition at 1200 µg/mL (L929) was -68% and the cytotoxicity at 13800 µM (SH; 1 h) was 0%. For the same molecule, the cytotoxicity at 13800 µM (SH; 6 h) was 0%, the cytotoxicity at 13800 µM (SH; 12 h) was 5% and the cytotoxicity at 13800 µM (SH; 18 h) was 80%. For the same molecule, the cytotoxicity at 13800 µM (SH; 24 h) was 80%, the cytotoxicity at 13800 µM (SH; 56 h) was 100% and the cytotoxicity at 13800 µM (BHK [7]; 1 h) was 0%. For the same molecule, the cytotoxicity at 13800 µM (BHK [7]; 6 h) was 0%, the cytotoxicity at 13800 µM (BHK [7]; 12 h) was 0% and the cytotoxicity at 13800 µM (BHK [7]; 18 h) was 0%. For the same molecule, the cytotoxicity at 13800 µM (BHK [7]; 24 h) was 20%, the cytotoxicity at 13800 µM (BHK [7]; 56 h) was 100% and the cytotoxicity at 13800 µM (S91; S91, 1 h) was 0%. The cytotoxicity at 13800 µM (S91; S91, 6 h) was 50%, the cytotoxicity at 13800 µM (S91; S91, 12 h) was 100% and the cytotoxicity at 13800 µM (S91; S91, 18 h) was 100%. For the same molecule, the cytotoxicity at 13800 µM (S91; S91, 24 h) was 100%, the cytotoxicity at 13800 µM (S91; S91, 56 h) was 100% and the cytotoxicity at 13800 µM (HFH; 1 h) was 0%. For the same molecule, the cytotoxicity at 13800 µM (HFH; 6 h) was 40%, the cytotoxicity at 13800 µM (HFH; 12 h) was 100% and the cytotoxicity at 13800 µM (HFH; 18 h) was 100%. For the same molecule, the cytotoxicity at 13800 µM (HFH; 24 h) was 100%, the cytotoxicity at 13800 µM (HFH; 56 h) was 100% and the “growth rate with morpholine exposure alone” value (RPMI-1641 [8]) was “not inhibited”. It also gave an IC50 [9] of over 2400 µg/mL, an IC50 [10] of over 2400 µg/mL and an IC50 [11] of over 2400 µg/mL. For the same molecule, the IC50 ([12]; Mus musculus, 48 h, read-out: ID50 (growth)) was 1200 µg/mL (≈ 13.8 mM), the “inhibition of pigmented HFH cell line compared with unpigmented cell lines” value ([12]; at 1200 and 2400 ug/ml) was “inhibited significantly more (P<0.05)” and the “inhibition of pigmented cells” value ([12]; up to, 300-2400 ug/ml, 48 hours after treatment) was “up to 90%”. For the same molecule, the “in vitro effectiveness of dosage/time regimen” value (melanin-pigmented cells; 2.3 mM for 6 days) was “effective in vitro for inhibiting the growth of melanin-pigmented cells with little or no effect upon unpigmented cells”, the “in vitro effectiveness of dosage/time regimen” value (melanin-pigmented cells; 13.8 mM for 1 hour) was “effective in vitro for inhibiting the growth of melanin-pigmented cells with little or no effect upon unpigmented cells” and the “selective toxicity to melanoma cells in vitro” value (melanin-pigmented cells; 750 ppm (9mM) or 500 ppm (5mM)) was “selectively toxic to melanoma cells in vitro”. The cytotoxicity at 13800 µM (HFH-LP [13]) was 30 ± 7%, the cytotoxicity at 24 h, 13800 µM (in vitro) was -101 ± 15% and the inhibition at 13800 µM (L929 fibroblast; L929, 1 Hour Exposure to 13.8 mM) was 0%. It also gave a cytotoxicity at 13800 µM [14] of 55 ± 6%, an inhibition at 13800 µM (NP [15]) of 0% and an inhibition at 13800 µM (S91 melanoma; S91, 1 Hour Exposure to 13.8 mM) of 60%.

With C1CCNCC1 [piperidine] the inhibition at 13800 µM (HFH-LP [4]; 1.5 h) was 42 ± 4%, the “inhibition of pigmented cell line HFH-LP (in words)” value (HFH-LP [4]; not as effective as morpholine at the dosage tested) was “selectively inhibitory to the pigmented cell line HFH-LP, although not as effective as morpholine” and the “in vitro effectiveness of dosage/time regimen” value (melanin-pigmented cells; 13.8 mM for 1 hour) was “effective in vitro for inhibiting the growth of melanin-pigmented cells with little or no effect upon unpigmented cells”. For the same molecule, the cytotoxicity at 13800 µM (HFH-LP [13]) was 33 ± 2%, the inhibition at 13800 µM (L929 fibroblast; L929, 1 h) was 0% and the cytotoxicity at 24 h, 13800 µM [16] was -115 ± 14%. The cytotoxicity at 13800 µM [14] was 44 ± 3%, the inhibition at 13800 µM (NP [15]) was 0% and the inhibition at 13800 µM (S91 melanoma; S91, 1 h) was 98%.
